Drawing on patent US20260130959A1, “FUNGAL EXTRACTS AND FLAVOR COMBINATIONS THEREOF” (MYCOTECHNOLOGY, INC., priority 2019, published 2026), this text covers licks for one compound.

The assay concerns Sprague-Dawley rats. Kind of assay: Rat lick study (Davis Rig) on saccharin, citric acid and quinine. The class given is in vivo. The note with it: water 192 licks. As to the method:
Bitter blocker prepared as described above in Example 2, at 5, 25, 50 and 100 mg/L alone (called CLEARTASTE® herein) and added to each solution below:
Sucrose 250 mM; Saccharin 10 mM; MSG 150 mM; NaCl 400 and 800 mM; Citric Acid 10 mM; Quinine 0.08 and 0.16 mM.
16 naïve, adult (>50 days old, approximately 200 gram body weight), male Sprague-Dawley rats were tested in the MS-160 “Davis Rig,” manufactured by DiLog Instruments, Inc. We measured licking behavior at a resolution of 1 ms during the controlled presentation of up to 16 taste stimuli. The Davis Rig is housed inside an acoustic isolation chamber utilizing a white noise generator. Intake and exhaust fans located on opposing walls of the chamber direct constant air flow along the longitudinal axis of the stimulus delivery tray in order to reduce olfactory cues for any given stimulus. Therefore all licking behavior during brief (30 s duration) trials was motivated by orosensory/taste sensations. Rats were trained to lick during trials presenting water as the stimulus in the Davis Rig for three consecutive days prior to the start of testing. Each daily test session contained two blocks of 15 trials producing two replications of each test stimulus within each daily session. We tested the rats for a total of eight days.

Each structure is given as a SMILES string.

Turning to `C=C[C@H]1C[N@@]2CC[C@H]1C[C@H]2[C@H](O)c1ccnc2ccc(OC)cc12` [quinine], the licks reads like this: (0.08 mM quinine alone) 170 licks; (0.16 mM quinine alone) 70 licks.
